Source: US6869929B2, “Use of transcription factors for treating inflammation and other diseases” (Beth Israel Deaconess Medical Center, priority 2000, dated 2005)

What was measured:
COL2A1 = COL2A1 mRNA time course in C-28/I2 chondrocytes; format: cell-based, human; conditions: by 2 h
COL2A1 promoter = test: COL2A1 promoter/intron deletion constructs, transient transfection in C-28/I2 cells; format: cell-based, human; conditions: all five constructs -577, -530, -403, -131, -83/+127 bp, 18 h
Experimental: The COL2A1 sequence spanning −577 to +3428 bp (Goldring M B, et al, J Cell Biochem 1994;54:85-99, 39) was cloned into the pGL2-basic (pGL2B) luciferase reporter gene vector (Promega,) and named pGL2-COL2/4.0. Deletion constructs containing −577/+125 bp, −131/+125 bp, −87/+125 bp were prepared by enzyme digestion of pGL2-COL2/4.0 using PstI, ApaI, and PuuII, followed by ligation. For the deletion constructs −45/+125 bp, −83/+7 bp, and −45/+7 bp, PCR products were generated as described (Osaki et al.) and cloned into the pGL2-Basic luciferase vector. These reporter constructs were used as templates to generate point mutations or internal deletions by PCR mutagenesis employing the oligonucleotides listed in FIG. 16 and the QuikChange™ Site-Directed Mutagenesis Kit (Stratagene, La Jolla, Calif.). DNA fragments containing point mutations were then cloned into the pGL2B vector and confirmed by DNA sequencing using a G2 primer on pGL2 DNA. Deletions were also made in the −577/+127 bp COL2A1 promoter construct using the ExSite™ PCR-Based Site-Directed Mutagenesis Kit (Stratagene).
Transient transfection experiments were carried out in C-28/I2 cells using LipofectAMINE PLUS™ Reagent (Life Technologies). Cells were seeded in 6-well tissue culture plates at 3.5×10^5 cells/well in DMEM/F12 containing 10% FCS 24 h prior to transfection. For each well, 1 μg of COL2A1-luciferase construct, 6 μl of PLUS reagent and 92 μl of serum-free DMEM/F12 were mixed and incubated for 15 min at room temperature. LipofectAMINE+ reagent (4 μl) in 100 μl of serum-free medium was then added to each reaction mixture and incubation was continued for an additional 30 min at room temperature. Finally, the transfection mixture was combined with 800 μl of serum-free medium and the lipid-nucleic acid complex was transferred to the washed cell monolayer in each well. After incubation for 4 h at 37° C., the transfection mix was diluted with an equal volume of DMEM/F12 containing 2% Nutridoma-SP, and incubation continued for 18 h in the absence or presence of IL-1β. […] Cell lysates were prepared by extraction with 200 μl of Reporter Lysis Buffer (Promega) and the protein content was determined using the Coomassie Plus Protein Assay Reagent (PIERCE). Luciferase activities were determined by chemiluminescence assay using the Autolumat LB953 luminometer (EG&G Berthold, Oak Ridge, Tenn.), normalized to the amount of protein. Each data point was calculated as the mean±standard deviation for three independently transfected cultures from one representative of at least three experiments. […]
To localize the responses to IL-1β and ESE-1 in the COL2A1 promoter, we made several 5′-deletions of the −577/+127 bp promoter construct, which we had previously determined to be responsive to IL-1β.

IL-1β: interleukin-1 beta, proinflammatory cytokine
COL2A1 mRNA levels (COL2A1): strongly inhibited | inhibition of COL2A1 promoter constructs (COL2A1 promoter): at least 50%
